Measurements: ChEMBL document CHEMBL1132759, “The flavanolignan silybin and its hemisynthetic derivatives, a novel series of potential modulators of P-glycoprotein” (Bioorg Med Chem Lett, 2000)

Assays:
[1] = biological target: ATP-dependent translocase ABCB1 (Mus musculus, UniProt P21447); experiment: Compound was tested for the binding affinity towards recombinant NBD2 C-terminal cytosolic nucleotide-binding domain of mouse P-Glycoprotein
[2] = Change in Fmax was determined; assay type: functional

Chain of ATP-dependent translocase ABCB1 (P21447 whole entry, the tested form may be a part): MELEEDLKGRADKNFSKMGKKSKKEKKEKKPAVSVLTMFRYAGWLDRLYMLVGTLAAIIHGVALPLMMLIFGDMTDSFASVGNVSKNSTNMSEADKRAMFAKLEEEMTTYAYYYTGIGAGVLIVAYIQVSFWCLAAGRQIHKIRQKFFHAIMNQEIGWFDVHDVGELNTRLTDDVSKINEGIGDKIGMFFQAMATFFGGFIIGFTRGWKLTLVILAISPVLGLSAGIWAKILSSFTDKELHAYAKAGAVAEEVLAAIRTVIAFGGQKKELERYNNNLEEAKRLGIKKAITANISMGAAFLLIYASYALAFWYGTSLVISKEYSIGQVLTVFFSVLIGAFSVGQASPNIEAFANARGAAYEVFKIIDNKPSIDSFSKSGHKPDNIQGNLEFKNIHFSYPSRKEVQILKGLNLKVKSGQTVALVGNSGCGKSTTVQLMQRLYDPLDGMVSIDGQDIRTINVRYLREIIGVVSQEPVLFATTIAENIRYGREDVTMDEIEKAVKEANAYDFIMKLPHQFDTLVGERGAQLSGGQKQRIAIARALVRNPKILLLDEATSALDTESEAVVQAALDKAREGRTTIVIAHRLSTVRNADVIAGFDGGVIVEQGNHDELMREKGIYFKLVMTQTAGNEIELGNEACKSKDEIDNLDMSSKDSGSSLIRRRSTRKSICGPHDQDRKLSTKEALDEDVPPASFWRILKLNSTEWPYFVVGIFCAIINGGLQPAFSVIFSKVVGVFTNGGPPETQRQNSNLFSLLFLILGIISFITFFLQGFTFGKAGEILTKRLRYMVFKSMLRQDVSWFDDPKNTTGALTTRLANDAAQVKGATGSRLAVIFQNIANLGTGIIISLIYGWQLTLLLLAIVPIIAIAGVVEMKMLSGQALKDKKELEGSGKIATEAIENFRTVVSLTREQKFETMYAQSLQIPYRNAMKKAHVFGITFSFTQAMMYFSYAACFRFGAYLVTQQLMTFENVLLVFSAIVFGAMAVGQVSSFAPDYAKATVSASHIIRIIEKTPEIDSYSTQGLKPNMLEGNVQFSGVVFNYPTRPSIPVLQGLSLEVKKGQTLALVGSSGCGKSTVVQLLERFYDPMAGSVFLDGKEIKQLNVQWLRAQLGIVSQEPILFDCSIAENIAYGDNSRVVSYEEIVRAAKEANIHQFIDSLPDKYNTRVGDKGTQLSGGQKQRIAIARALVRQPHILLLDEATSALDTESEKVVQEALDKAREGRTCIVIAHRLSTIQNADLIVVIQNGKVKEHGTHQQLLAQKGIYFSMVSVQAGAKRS

Row | Compound | Kd [1] | Delta Fmax [2]
1 | COc1cc(C2Oc3cc(-c4oc5c(CC=C(C)C)c(O)cc(O)c5c(=O)c4O)ccc3OC2CO)ccc1O (centres undefined) | 250 nM | 93.4%
2 | COc1ccc(-c2oc3cc(O)cc(O)c3c(=O)c2O)cc1 [KAEMPFERIDE] | 4500 nM | –
3 | COc1cc(C2Oc3cc([C@H]4Oc5cc(O)cc(O)c5C(=O)[C@@H]4O)ccc3OC2CO)ccc1O (some centres undefined) [SILIBININ] | 6800 nM | 91%
4 | COc1cc(C2Oc3cc(-c4oc5c(C/C=C(\C)CCC=C(C)C)c(O)cc(O)c5c(=O)c4O)ccc3OC2CO)ccc1O (centres undefined) | 120 nM | 88.1%
5 | COc1cc(C2Oc3cc(-c4oc5cc(O)c(C/C=C(\C)CCC=C(C)C)c(O)c5c(=O)c4O)ccc3OC2CO)ccc1O (centres undefined) | 180 nM | 83.3%
6 | O=C1C[C@@H](c2ccc(O)cc2)Oc2cc(O)cc(O)c21 [NARINGENIN] | 28500 nM | –
7 | O=C1c2c(O)cc(O)cc2O[C@H](c2ccc(O)c(O)c2)[C@H]1O | – | 101%
8 | COc1cc(C2Oc3cc(-c4oc5cc(O)cc(O)c5c(=O)c4O)ccc3OC2CO)ccc1O (centres undefined) | – | 91%
9 | COc1cc(C2Oc3cc(-c4oc5cc(O)c(CC=C(C)C)c(O)c5c(=O)c4O)ccc3OC2CO)ccc1O (centres undefined) | 370 nM | 90.3%
